# Experimental data taken from US20110296540A1, “ASSAY FOR SCREENING ANTIDEPRESSANTS” (priority 2008, published 2011).
# Read-outs that look alike come from different tables or passages of the source.
# Assays:
# [1] = test system: C57BL/6Ntac mice; assay: Forced Swim Test, chronic corticosterone model; format: in vivo; conditions: for immobility duration (FST): mean±SEM
# [2] = test system: C57BL/6Ntac mice; assay: Open Field paradigm, chronic corticosterone model; format: in vivo; conditions: 3-week antidepressant treatment in corticosterone-treated mice; imipramine 40, fluoxetine 18 mg/kg/day
# Source text: The procedure described previously was used (Dulawa et al., 2004). Motor activity was quantified in four Plexiglas open field boxes 43 times 43 cm2 (MED Associates, Georgia, Vt.). Two sets of 16 pulse-modulated infrared photobeams were placed on opposite walls 2.5-cm apart to record x-y ambulatory movements. Activity chambers were computer interfaced for data sampling at 100-ms resolution. The computer defined grid lines that divided each Open Field into center and surround regions, with each of four lines being 11 cm from each wall. Dependent measures in the center were the total time and the number of entries over a 30-min period of test. The whole session was also divided in […] to analyze the time spent in the center every 5 min. The overall motor activity was quantified as the total distance traveled (cm) or distance traveled in the center divided by total distance traveled.
# Mice were anesthetized with ketamine and xylazine (100 mg/ml ketamine; 20 mg/ml xylazine), placed in a stereotaxic frame and exposed to cranial irradiation using a Siemens Stabilopan X-ray system operated at 300 kVp and 20 mA. Animals were protected with a lead shield that covered the entire body, but left unshielded a 3.22×11-mm treatment field above the hippocampus (interaural 3.00 to 0.00) exposed to X-Ray. Dosimetry was done using a Capintec Model PR06G electrometer ionization chamber and Kodak Readypack Radiographic XV films. The corrected dose rate was approximately 1.8 Gy per min at a source to skin distance of 30 cm. The procedure lasted 2 min and 47 sec, delivering a total of 5 Gy. Three 5 Gy doses were delivered on days 1, 4 and 8.
# [3] = test system: HPA axis; assay: Stress evoked increase of corticosterone levels; format: in vivo, mice; conditions: acute swim stress; baseline conditions and after chronic corticosterone treatment
# Procedure: Adult male C57BL/6Ntac mice were exposed to a 6 minutes swim stress. […]. Blood was collected into ice-chilled tubes containing EDTA and centrifuged at 3000 rpm for 10 min (at 4° C.) for separation of plasma, and plasma samples were stored at −80° C. until assayed. […]; Diagnostic Systems Laboratories, Inc. Webster, Tex.; sensitivity limit: 20 ng/ml). ACTH was measured directly in plasma using an ImmuChem™ Double Antibody hACTH 1251 RIA kit (No. 07-106101; MP Biomedicals, LLC, Orangeburg, N.Y.) with a sensitivity limit ˜5.7 pg/ml. All samples were measured simultaneously to reduce inter-assay variability.
# [4] = molecular target: T1, 5-HT1A autoreceptors (Mus musculus, UniProt Q64264); assay: Whole cell recordings in the dorsal raphe, response to 5-HT1A agonist; format: cell-based; design: endogenous in cells; host or cells: Serotonergic neurons of the raphe nuclei in mice homozygous for tetO-1A with one copy of Pet-tTS; conditions: 1A-High mice vs. 1A-Low mice; 100 nM
# T1 sequence (Q64264 1-421): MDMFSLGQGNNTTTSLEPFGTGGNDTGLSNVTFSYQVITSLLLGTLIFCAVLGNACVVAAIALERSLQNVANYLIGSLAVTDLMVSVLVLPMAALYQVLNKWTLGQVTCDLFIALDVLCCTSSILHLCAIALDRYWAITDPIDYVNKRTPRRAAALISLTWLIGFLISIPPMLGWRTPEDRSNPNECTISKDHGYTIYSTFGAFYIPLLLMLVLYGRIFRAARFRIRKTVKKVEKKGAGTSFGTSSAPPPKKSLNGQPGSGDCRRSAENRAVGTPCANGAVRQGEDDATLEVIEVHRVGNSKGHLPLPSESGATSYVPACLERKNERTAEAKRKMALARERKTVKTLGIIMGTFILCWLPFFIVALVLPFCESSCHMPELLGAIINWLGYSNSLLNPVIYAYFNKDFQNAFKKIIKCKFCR
# Source text: Downward deflections reflect spontaneous synaptic activity.
# Much of this difference is accounted for by a smaller proportion of serotonergic neurons responding to the agonist challenge in the 1A-Low mice.
# [5] = test system: tet0-1A homozygous mice that do not carry the tTS transgene; assay: Control for the effects of doxycycline on baseline anxiety and depression-related behavior; format: in vivo; conditions: transgene-negative littermates
# Source text: FIGS. 27A-C Control for the effects of doxycycline on baseline anxiety and depression-related behavior.
# (C) Likewise, no differences were detected in the forced swim test on either the first (i) or second (ii) day of testing (N=47).
# This was accomplished using a novel bigenic system consisting of two parts: 1) insertion of the tet0 DNA regulatory element into the promoter region of the Htr1a gene, to create the tet0-1A allele and 2) raphe-specific expression of the tetracycline-dependent transcriptional suppressor (tTS) under the control of the previously characterized 540Z Pet-1 promoter fragment (P. M. Fisher et al., Nat Neurosci 9, 1362 (Nov., 2006)). […] Removal of doxycycline for four weeks beginning at postnatal day (PND) 50 creates an adult population of animals with lower expression of 5-HT1A autoreceptors (1A-Low) (FIG. 21b). Four weeks after doxycycline removal, suppression has reached maximal levels (data not shown).
# [6] = molecular target: T1, 5-HT1A autoreceptors
# Procedure: (A) 8-OH DPAT-induced hypothermia in 1A-High and 1A-Low mice. Following establishment of baseline body temperature, animals received IP injections of 0.1 mg/kg 8-OHDAPT, 0.5 mg/kg 8-OH DPAT, or saline (N=5/dose/group). Values are expressed as core temperature change from the last recorded baseline temperature.
compound,measurement,setting,value
CN(C)CCCN1c2ccccc2CCc2ccccc21 [imipramine],immobility duration (FST),"[1]; corticosterone treated animals, alone or with antidepressant",296.8 s
same,immobility duration (FST),[1]; non-corticosterone treated animals,298.5 s
same,"duration of immobility (FST), effect","[1]; two-way ANOVA, corticosterone 7 weeks, antidepressants last 3 weeks",decreased
same,corticosterone-induced anxiety phenotype in the Open Field (time and entries in the center),[2],reversed
same,stress induced corticosterone levels,[3],had no effect
NCCc1c[nH]c2ccc(C(N)=O)cc12 [5-CT],average current elicited by agonist challenge in serotonergic neurons,[4],significantly higher
C[C@H]1c2cccc(O)c2C(=O)C2=C(O)[C@]3(O)C(=O)C(C(N)=O)=C(O)[C@@H](N(C)C)[C@@H]3[C@@H](O)[C@@H]21 [doxycycline],"effect on behavioral measures (Open Field, Light/Dark choice test, forced swim test)",[5],no effect
CCCN(CCC)C1CCc2cccc(O)c2C1 (stereo not shown) [8-OH DPAT],hypothermic response to 5-HT1A agonist challenge,"[6]; 1A-High mice, 0.1 and 0.5 mg/kg IP",robust and dose-dependent hypothermic response
same,hypothermic response to 8-OH DPAT,"[6]; 1A-High vehicle control mice, 0.5 mg/kg i.p.",robust hypothermic response
same,hypothermic response to 5-HT1A agonist challenge,"[6]; 1A-Low mice, detected only at the highest dose",attenuated response
